The source of these data is US6376472B1, “Compounds having antihypertensive, cardioprotective, anti-ischemic and antilipolytic properties” (Aventis Pharmaceuticals, Inc., priority 1996, dated 2002).

One data set concerns lipolysis. The settings on record: selective agonists of the A2 receptor subtype; cited from earlier work.
The test system of the next data set is A1 and A2 receptors. The settings on record: selectivity of receptor affinity; cited from earlier work.
The subject of a further data set is A2 receptor. Particulars: relative to NECA; cited from earlier work.

Structures are written as SMILES.

Consider `COC[C@H]1C[C@@H](n2cnc3c(N[C@H]4CCN(c5ccc(C(F)(F)F)cn5)C4)ncnc32)[C@@H](O)[C@H]1O`, for which the melting point lay in the range of 166 to 168 °C.

Turning to `CCNC(=O)[C@H]1O[C@@H](n2cnc3c(N)nc(NCCc4ccc(CCC(=O)O)cc4)nc32)[C@H](O)[C@@H]1O` [CGS 21680], the antilipolytic activity result with lipolysis is recorded as “do not exhibit antilipolytic activity”. Take `OC[C@H]1O[C@@H](n2cnc3c(NC4CCCC4)ncnc32)[C@H](O)[C@@H]1O` [CPA, Cyclopentyladenosine]: the A2/A1 ratio in the data set with A1 and A2 receptors is 780. For the compound `Nc1nc(Nc2ccccc2)nc2c1ncn2[C@@H]1O[C@H](CO)[C@@H](O)[C@H]1O` [CV-1808], the “fold less potent than NECA in affinity for the A2 receptor” value in the data set with A2 receptor is 10 fold. The A2/A1 ratio in the data set with A1 and A2 receptors was 0.19.

By melting point is commonly meant the temperature, or range, at which the solid turns liquid.
